SMILES strings stand for the structures. Marks after values point to notes of the source that are not given here.

Test [1] concerns Hep-3B cells. In words: Cellular assay: EPO secretion in Hep-3B cells. The class given is cell-based, human. As to conditions: 24 hours, percent of EPO secretion relative to assay control compound.
In test [2] the target is T1, PHD2181-417 (Homo sapiens, UniProt Q9GZT9).
T1 construct: histidine tag (N, cleaved yes); Smt3 (SUMO) tag (N, cleaved yes); made in house; host or cells: E. coli BL21 (pBAD vector)
T1 sequence (Q9GZT9 181-417): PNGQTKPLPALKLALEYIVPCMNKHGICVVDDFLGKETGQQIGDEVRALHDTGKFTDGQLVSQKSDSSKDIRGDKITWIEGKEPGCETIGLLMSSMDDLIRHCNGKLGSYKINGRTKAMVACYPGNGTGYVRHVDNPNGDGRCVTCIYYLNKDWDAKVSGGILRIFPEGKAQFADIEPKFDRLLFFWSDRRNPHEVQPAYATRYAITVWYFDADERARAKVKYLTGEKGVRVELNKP
Briefly: PHD enzyme activity assay ([14C]-succinic acid production).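 Also: enzyme expressed in E. coli BL21, assayed in Tris-HCl pH 7.5 with catalase, DTT and ascorbate, [14C]-succinic acid beta-counted after DNP precipitation of residual 2-oxoglutarate.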 The class given is biochemical. As to conditions: inhibition of PHD2181-417 activity; HIF-1α peptide 10 μM, [5-14C]-2-oxoglutaric acid, 10 minutes; read-out: Enzyme pIC50 (converted).

The mark [3] stands for this setting: final compound concentration 100 μM.
Setting [4] is: final compound concentration of 10 μM.

Turning to `O=C(O)CNC(=O)c1nc2ccc(NS(=O)(=O)c3ccccc3)cc2[nH]1` [Example 30, [(6-Benzenesulfonylamino-1H-benzoimidazole-2-carbonyl)-amino]-acetic acid], in test [1] (setting [3]), the “Cellular % EPO Stimulation” value is on record as 1.10%. Also, the IC50 in test [2] is 31.6 µM.
Take `O=C(O)CNC(=O)c1nc2cc(-c3ccc4ccccc4c3)ccc2[nH]1` [Example 25, [(5-Naphthalen-2-yl-1H-benzoimidazole-2-carbonyl)-amino]-acetic acid]: the “Cellular % EPO Stimulation” value in test [1] (setting [3]) came to 2.10%. Also, the IC50 in test [2] was 12.6 µM.
The like results for `O=C(O)CNC(=O)c1nc2cc(-c3cccc(OCc4ccc(Cl)cc4)c3)ccc2[nH]1` [Example 15, ({5-[3-(4-Chloro-benzyloxy)-phenyl]-1H-benzoimidazole-2-carbonyl}-amino)-acetic acid] were, in that order, −3.90% and 2.51 µM.
Take `O=C(O)CNC(=O)c1nc2cc(-c3cnc4ccccc4c3)ccc2[nH]1` [Example 20, [(5-Quinolin-3-yl-1H-benzoimidazole-2-carbonyl)-amino]-acetic acid]: in test [1] (setting [3]), the “Cellular % EPO Stimulation” value was 8.26%. In test [2], the IC50 is 1.58 µM.
The corresponding values for `Cc1cc(-c2ccc3[nH]c(C(=O)NCC(=O)O)nc3c2)ccc1Cl` [Example 27, {[5-(4-Chloro-3-methyl-phenyl)-1H-benzoimidazole-2-carbonyl]-amino}-acetic acid] are −0.70% and 39.8 µM.
The like results for `O=C(O)CNC(=O)c1nc2cc(NC(=O)c3ccccc3)ccc2[nH]1` [Example 29, [(5-Benzoylamino-1H-benzoimidazole-2-carbonyl)-amino]-acetic acid] were, in that order, −3.30% and 63.1 µM.
The corresponding values for `COc1cccc(-c2ccc3[nH]c(C(=O)NCC(=O)O)nc3c2)c1` [Example 23, {[5-(3-Methoxy-phenyl)-1H-benzoimidazole-2-carbonyl]-amino}-acetic acid] are 1.40% and 39.8 µM.
For `O=C(O)CNC(=O)c1nc2cc(-c3cc(Cl)ccc3F)ccc2[nH]1` [Example 28, {[5-(5-Chloro-2-fluoro-phenyl)-1H-benzoimidazole-2-carbonyl]-amino}-acetic acid], the “Cellular % EPO Stimulation” value in test [1] (setting [3]) is listed as 1.40%. For the same compound, the IC50 in test [2] was 25.1 µM.
`C[C@@H](NC(=O)c1nc2cc(Cl)c(Cl)cc2[nH]1)C(=O)O` [Example 53, (R)-2-[(5,6-Dichloro-1H-benzoimidazole-2-carbonyl)-amino]-propionic acid]: in test [1] (setting [4]), the “Cellular % EPO Stimulation” value is listed as 11.3* %. In addition, the IC50 in test [2] is over 100 µM.
In the case of `O=C(O)c1cnn(-c2nc3cc(C(F)(F)F)ccc3[nH]2)c1` [Example 34, 1-(5-Trifluoromethyl-1H-benzoimidazol-2-yl)-1H-pyrazole-4-carboxylic acid], the “Cellular % EPO Stimulation” value in test [1] (setting [3]) was 127.80%. For the same compound, the IC50 in test [2] is 0.251 µM.
As to `O=C(O)CNC(=O)c1nc2cc(-c3cccc(OCc4ccccc4F)c3)ccc2[nH]1` [Example 17, ({5-[3-(2-Fluoro-benzyloxy)-phenyl]-1H-benzoimidazole-2-carbonyl}-amino)-acetic acid], the “Cellular % EPO Stimulation” value in test [1] (setting [3]) amounted to 1.50%. For the same compound, the IC50 in test [2] is 5.01 µM.
Take `O=C(O)CNC(=O)c1nc2cc(-c3cccc(OCc4ccccc4Cl)c3)ccc2[nH]1` [Example 14, ({5-[3-(2-Chloro-benzyloxy)-phenyl]-1H-benzoimidazole-2-carbonyl}-amino)-acetic acid]: the “Cellular % EPO Stimulation” value in test [1] (setting [3]) was −3.80%. Also, in test [2], the IC50 is 2.51 µM.
The like results for `C[C@@H](NC(=O)c1nc2ccc(I)cc2[nH]1)C(=O)O` [Example 54, (R)-2-[(5-Iodo-1H-benzoimidazole-2-carbonyl)-amino]-propionic acid] were, in that order, 7.50% and over 100 µM.
The corresponding values for `CCCOc1ccc(-c2ccc3[nH]c(C(=O)NCC(=O)O)nc3c2)cc1` [Example 26, {[5-(4-Propoxy-phenyl)-1H-benzoimidazole-2-carbonyl]-amino}-acetic acid] are 2.50% and 15.8 µM.
Regarding `CC(NC(=O)c1nc2ccccc2[nH]1)C(=O)O` (stereo in doubt) [Example 50, (R)-2-[(1H-Benzoimidazole-2-carbonyl)-amino]-propionic acid], in test [1] (setting [4]), the “Cellular % EPO Stimulation” value is recorded as 9.50* %. In addition, in test [2], the IC50 was over 100 µM.
Take `O=C(O)CNC(=O)c1nc2ccc(NCc3ccccc3)cc2[nH]1` [Example 31, [(6-Benzylamino-1H-benzoimidazole-2-carbonyl)-amino]-acetic acid]: the “Cellular % EPO Stimulation” value in test [1] (setting [3]) was 1.40%. Moreover, in test [2], the IC50 was 5.01 µM.
For `Cc1cc(-c2ccc3[nH]c(C(=O)NCC(=O)O)nc3c2)cc(C)c1OCc1cccc(Cl)c1` [Example 22, ({5-[4-(3-Chloro-benzyloxy)-3,5-dimethyl-phenyl]-1H-benzoimidazole-2-carbonyl}-amino)-acetic acid], the “Cellular % EPO Stimulation” value in test [1] (setting [3]) is recorded as −1.06%. For the same compound, the IC50 in test [2] was 12.6 µM.
In the case of `C[C@H](NC(=O)c1nc2ccccc2[nH]1)C(=O)O` [Example 2, (S)-2-[(1H-Benzoimidazole-2-carbonyl)-amino]-propionic acid], the “Cellular % EPO Stimulation” value in test [1] (setting [3]) was determined as 66.03%. In addition, the IC50 in test [2] was 39.8 µM.
Turning to `C[C@H](NC(=O)c1nc2ccc(F)cc2[nH]1)C(=O)O` [Example 10, (S)-2-[(6-Fluoro-1H-benzoimidazole-2-carbonyl)-amino]-propionic acid], the “Cellular % EPO Stimulation” value in test [1] (setting [3]) turned out to be 14.74%. Moreover, the IC50 in test [2] was over 100 µM.

Source of the values: patent US20150284335A1, “Benzoimidazoles as prolyl hydroxylase inhibitors” (Janssen Pharmaceutica NV, priority 2008, published 2015).
